Numbers after ± are expanded uncertainties. Values belong to the compound of their own block, whether it stands above or below them.
Legend:
[1] = refractive index (Na D-line) (dimensionless); conditions: 298.15 K; 101.33 kPa; Liquid; Standard Abbe refractometry
[2] = Liquid, Ebulliometric method (Recirculating still)

SMILES: Cc1ccccc1C [1,2-dimethylbenzene]
- refractive index [1]: 1.5028 ± 0.0007

- refractive index [1]: 1.3685 ± 0.0007
- vapor or sublimation pressure ([2]; 290.34 K): 20.3 ± 0.4 kPa
- vapor or sublimation pressure ([2]; 299.7 K): 30.13 ± 0.42 kPa
- vapor or sublimation pressure ([2]; 307.12 K): 40.39 ± 0.46 kPa
- vapor or sublimation pressure ([2]; 312.92 K): 50.23 ± 0.5 kPa
- vapor or sublimation pressure ([2]; 317.93 K): 60.24 ± 0.54 kPa
- vapor or sublimation pressure ([2]; 322.26 K): 70.13 ± 0.59 kPa
- vapor or sublimation pressure ([2]; 326.15 K): 80.11 ± 0.64 kPa
- vapor or sublimation pressure ([2]; 329.74 K): 90.32 ± 0.69 kPa
- vapor or sublimation pressure ([2]; 333.37 K): 101.76 ± 0.72 kPa
SMILES: CCCC(C)C [2-methylpentane]

- refractive index [1]: 1.5172 ± 0.0007
SMILES: Cc1ccsc1 [3-methylthiophene]

- refractive index [1]: 1.3724 ± 0.0007
SMILES: CCCCCC [hexane]

- vapor or sublimation pressure ([2]; 325.39 K): 20.25 ± 0.39 kPa
- vapor or sublimation pressure ([2]; 336.27 K): 30.47 ± 0.4 kPa
- vapor or sublimation pressure ([2]; 344.1 K): 40.07 ± 0.43 kPa
- vapor or sublimation pressure ([2]; 350.71 K): 49.96 ± 0.47 kPa
- vapor or sublimation pressure ([2]; 356.44 K): 60.05 ± 0.51 kPa
- vapor or sublimation pressure ([2]; 361.45 K): 70.17 ± 0.55 kPa
- vapor or sublimation pressure ([2]; 365.75 K): 79.96 ± 0.59 kPa
- vapor or sublimation pressure ([2]; 369.98 K): 90.64 ± 0.63 kPa
- vapor or sublimation pressure ([2]; 373.9 K): 101.6 ± 0.65 kPa
SMILES: CC1CCCCC1 [methylcyclohexane]

- refractive index [1]: 1.4067 ± 0.0007
- vapor or sublimation pressure ([2]; 300.4 K): 20.25 ± 0.4 kPa
- vapor or sublimation pressure ([2]; 310.16 K): 30.18 ± 0.41 kPa
- vapor or sublimation pressure ([2]; 317.69 K): 40.24 ± 0.45 kPa
- vapor or sublimation pressure ([2]; 323.75 K): 50.16 ± 0.49 kPa
- vapor or sublimation pressure ([2]; 328.97 K): 60.22 ± 0.53 kPa
- vapor or sublimation pressure ([2]; 333.37 K): 69.94 ± 0.58 kPa
- vapor or sublimation pressure ([2]; 337.5 K): 80.18 ± 0.62 kPa
- vapor or sublimation pressure ([2]; 341.25 K): 90.53 ± 0.68 kPa
- vapor or sublimation pressure ([2]; 345.1 K): 102.31 ± 0.7 kPa
SMILES: CC1CCCC1 [methylcyclopentane]

Source: the NIST ThermoML archive (doi:10.1016/j.fluid.2009.11.004)
